According to patent US9017744B2, “Method of using isomaltulose to suppress blood glucose level increase” (Mitsui Sugar Co., Ltd., priority 2002, dated 2015):

Experiments:
[1] = Blood glucose level test after ingesting drinks (Example 1); format: in vivo, human; conditions: for blood glucose level increase: FIG. 1
Protocol: Using each of the Comparative drinks as a control sample, a blood glucose level test after ingesting the drink was performed as will be described later. […] Using each of the Example drinks as a test sample, a blood glucose level test after ingesting the drink was performed. The blood glucose level test was as follows: Five healthy volunteers (4 males and 1 female), 31-40 aged, were selected as the test subjects. They took no breakfast on a test day and kept fasting for 12 hrs or more before the start of the test. Their bloods were collected before ingesting a drink (0 min), and 30 min, 60 min, 90 min, and 120 min after ingesting it. As a result their blood glucose levels are determined. One kind of drink was ingested for one test. Another drink was ingested on another day and the test was carried out once a day for total 8 days. The same five test subjects were applied to all the tests for blood glucose levels. In the Example 1, the free style Kissei kit (made by Kissei Pharmaceutical Co., LTD) was used to collect blood samples and test a blood glucose level.

[2] = Heat coloring of carbohydrate with glutamic acid (Test Example 1); format: physicochemical; conditions: for absorbance at a wavelength of 420 nm: 5 g carbohydrate + 1 g glutamic acid in 50 g
Protocol: 5 g of carbohydrate and 1 g of glutamic acid were dissolved in distilled water to prepare a sample having a total weight of 50 g. […] These samples were filled in 100 ml capped vials and then heated at 100° C. for 50 min. After the heating, samples were cooled and respective absorbances were measured at a wavelength of 420 nm.
Three same kinds of samples were prepared and treated in an autoclave at 121° C. for 20 min, that is, the same level as in retort sterilization for a canned food, and measured the absorbance at a wavelength of 420 nm.

[3] = Crystallization of 50 wt % solutions stored at 5° C. (Test Example 2); format: physicochemical
Protocol: Dissolution was performed until no crystal remained at 50° C. These vials were put in a refrigerator set at 5° C. to observe crystallization.

[4] = Body fat accumulation in mice fed feeds for 8 weeks (Example 3); format: in vivo, C57BL/6CrSlc(SPF) male mice
From the text: Mice were consecutively fed with a feed added with isomaltulose, a feed added with sucrose and no isomaltulose, and a feed added with both isomaltulose and sucrose to compare their body fat accumulation amount.
C57BL/6CrSlc(SPF) male mice (30 heads) aged 7 weeks were fed with a commercial powder feed (trade name: CRF-1 powder, made by Oriental Yeast Co., LTD) and water ad libitum to prefeed for a week. […] The groups were fed with their respective feeds and water ad libitum for 8 weeks. The feeding condition was as follows: temperature 22±3° C., humidity (relative humidity) 50±20%, ventilation cycles 13-17 times/hr, and lighting time 8:00-20:00 (light 12 hrs, dark 12 hrs).
After the end of the feeding, the mice were light anesthetized with ether and sectioned abdominally to exsanguinate from postcava to death. For a typical example of every group, digital photographs showing body fat accumulation inside the abdominal cavity were taken. Then, for all the cases, the kidney peripheral fat (including the retroperitoneal fat) and the epididymis peripheral fat were taken out to measure their wet weights separately in left and right. The mesenteric fat also was taken out to measure its wet weight. These three kinds of fat tissues are typical of visceral fat. […]

[5] = monohydrate; at 20° C.; cited from earlier work
[6] = rats; high fat diet, all sucrose replaced by isomaltulose, compared with sucrose-containing feed; cited from earlier work
[7] = autoclave at 121° C. for 20 min

SMILES | blood glucose level 30 minutes after ingesting ([1]; 25 g ingested alone (Comparative example)) | blood glucose level 30 minutes after ingesting ([1]; 50 g ingested alone (Comparative example)) | visual colour of sample [2, 7] | crystallization observed ([3]; 50 wt % total sugar solution, during 6 days) | increase in blood glucose level after consuming the carbohydrates ([1]; 25 g isomaltulose in combination with 25 g sucrose or 25 g glucose) | area under blood glucose level increase curve ([1]; 25 g isomaltulose in combination with 25 g sucrose or 25 g glucose, compared with the Comparative groups) | minimum intake of isomaltulose necessary to reduce an increase in blood glucose level ([1]; in vivo) [g] | blood glucose level increase ([1]; simultaneous ingestion of 25 g isomaltulose and 25 g glucose, compared with 25 g glucose alone) | blood glucose level increase ([1]; simultaneous ingestion of 25 g isomaltulose and 25 g sucrose, compared with 50 g sucrose alone and 25 g sucrose alone) | isomaltulose ratio in total carbohydrate at which the GI value surely decreased ([1]; total carbohydrate weight 50 g, FIG. 4) [%] | ratio of isomaltulose in carbohydrate at which it reduces the accumulation of body fat ([4]; mouse, in vivo) [%] | minimum intake of isomaltulose necessary to reduce a body fat accumulation ([4]; presumed, in terms of a person having a body weight of 60 kg) [g] | absorbance at a wavelength of 420 nm [2, 7] | absorbance at a wavelength of 420 nm ([2]; heated at 100° C. for 50 min) | storage time at which crystallization began ([3]; 50 wt % solution, 100 ml) [days] | amount of crystal ([3]; 50 wt % solution, 100 ml, after 6 days) [g] | solubility [5] [g in 100 g water] | body fat accumulation amount [6]
OC[C@H]1O[C@@](CO)(O[C@H]2O[C@H](CO)[C@@H](O)[C@H](O)[C@H]2O)[C@@H](O)[C@@H]1O [sucrose, reference compound] | sudden increase | sudden increase | clearly light brown | no crystallization | – | – | – | – | – | – | – | – | – | – | – | – | – | –
OC[C@H]1O[C@H](OC[C@H]2OC(O)(CO)[C@@H](O)[C@@H]2O)[C@H](O)[C@@H](O)[C@@H]1O (stereo partly drawn) [isomaltulose, 6-O-alpha-D-Glucopyranosyl-D-fructofuranose] | – | – | clearly deep brown | – | no sudden increases | significantly lower values | ≥ 5 | reduced | reduced | ≥ 10 | ≥ 20 | ≥ 10 | 0.322 | 0.004 | 2 | 10.77 | 38.4 | lower body fat accumulation amount
